Results published in patent EP4663632A1, “COMPOUNDS USEFUL FOR THE MODULATION OF THE ACTIVITY OF STING” (Sulis Therapeutics ApS, priority 2024, dated 2025).

Assays:
[1] = target: C-terminal domain (CTD) of human STING (Homo sapiens, UniProt Q86WV6); assay: STING binding FP assay III; set-up: recombinant human STING protein (155-379); details: 10 nM STING (FP assay III according to the text); read-out: STING binding FP assay II, IC50
Description: The interaction between molecules and the C-terminal domain (CTD) of human STING was evaluated using a competition binding assay. In this assay, recombinant human STING protein (155-379) and a STING binding fluorescent probe were employed. Upon binding of the probe to STING, the rotation of the fluorescent probe is slowed due to the larger molecular size of the protein-bound complex. As a result, emitted light retains its plane of polarization, leading to an increase in fluorescence polarization. Molecules competing for the probe binding site displace the probe, which leads to rapid randomization of the polarization plane of the emitted light and a subsequent decrease in measured fluorescence polarization signal. Change in polarization was measured, allowing a comparative evaluation of the binding affinities of different compounds to the target protein.
The assay was performed in 96-well plates (ThermoFisher, cat.# 237108) containing 100µl : 10 µL test compound in 10% DMSO and buffer A (150 mM NaCl, 50 mM HEPES pH 7.5, 1 mM DTT) + 90 µL prepared master mix solution of: 4 nM fluorescein-labelled STING ligand (Probe 1; synthesis described above) in buffer A + 0.055% Tween-20 (v/v) and 35 nM STING in buffer A. Post mixing, plates were agitated at 600rpm and incubated for 20 min at room temperature. Subsequent measurements of the fluorescence polarization signal were made on a BioTek Synergy-H1 plate reader, using a polarization filter; Exc: 485/20 nm, Em: […]) with a gain-setting of 75. IC50 values were determined using a standard non-linear regression four-parameter curve fit in Graphpad Prism.
The procedure for STING binding FP assay III is the same as described for STING binding FP assay I, except for a lower STING concentration. In STING binding FP assay III, a concentration of 10 nM STING in buffer A was used.

STING = STING (Homo sapiens, UniProt Q86WV6); assay: Western Blot analysis of inhibition of STING activation in HFF-1 cells; type: cell-based; set-up: host or cells: HFF-1 human foreskin fibroblasts; details: for STING, TBK1 and IRF1 phosphorylation: 2 h or 5 h; for phosphorylation of STING, IRF1 or TBK1 (agonism): compound as single agent, no activation
Description: To assess whether S1 STING ligands inhibit STING activation, primary human skin fibroblasts (Figure 5) or HFF-1 cells (Figure 6) were treated with various compounds which comprise only an S1 ligand domain and a Linker domain before undergoing Western Blot analysis as described below.
The cells were lysed and analysed on WB. […] The WB membrane was probed for p-STING, STING, p-IRF3, p-TBK1, and Vinculin.

[2] = 5 µM for 15 min prior to 300 nM diABZI
[3] = 5 µM for 15 min prior to 8 µg/mL cGAMP

Sequence of C-terminal domain (CTD) of human STING (Q86WV6 155-379): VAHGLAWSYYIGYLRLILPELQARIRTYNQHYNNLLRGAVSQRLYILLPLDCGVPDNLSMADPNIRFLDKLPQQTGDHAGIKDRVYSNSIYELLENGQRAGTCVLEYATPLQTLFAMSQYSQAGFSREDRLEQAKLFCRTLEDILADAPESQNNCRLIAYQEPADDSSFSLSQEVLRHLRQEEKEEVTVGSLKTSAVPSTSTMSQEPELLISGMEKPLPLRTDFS
Sequence of STING (Q86WV6 whole entry, the tested form may be a part): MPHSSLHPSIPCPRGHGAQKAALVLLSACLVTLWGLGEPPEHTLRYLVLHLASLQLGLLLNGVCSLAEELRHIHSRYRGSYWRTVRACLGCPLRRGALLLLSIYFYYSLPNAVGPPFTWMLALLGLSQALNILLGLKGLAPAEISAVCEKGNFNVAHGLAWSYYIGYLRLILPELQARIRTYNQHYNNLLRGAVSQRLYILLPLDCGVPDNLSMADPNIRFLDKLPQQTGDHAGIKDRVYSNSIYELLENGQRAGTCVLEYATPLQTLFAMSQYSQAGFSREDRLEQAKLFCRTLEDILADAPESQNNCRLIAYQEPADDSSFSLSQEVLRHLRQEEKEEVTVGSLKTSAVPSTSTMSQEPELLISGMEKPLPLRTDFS

Compound	IC50 [1] [nM]	STING, TBK1 and IRF1 phosphorylation (STING; [2])	STING, TBK1 and IRF1 phosphorylation (STING; [3])	phosphorylation of STING, IRF1 or TBK1 (agonism) (STING)
CCn1nc(C)cc1C(=O)Nc1nc2cc(C(N)=O)ccc2n1CCC(CCn1c(NC(=O)c2cc(C)nn2CC)nc2cc(C(N)=O)ccc21)OCC(=O)NCCOCCOCCOCC(=O)N[C@H](C(=O)N1C[C@H](O)C[C@H]1C(=O)NCc1ccc(-c2scnc2C)cc1)C(C)(C)C [Example 4, N-[(S)-1-{[(2S,4R)-4-Hydroxy-2-({[p-(4-methyl-1,3-thiazol-5-yl)phenyl]methyl}carbamoyl)-1-pyrrolidinyl]carbonyl}-2,2-dimethylpropyl]11-[({3-[5-carbamoyl-2-(1-ethyl-3-methyl-5-pyrazolylcarbonylamino)-1H-1,3-benzimidazol-1-yl]-1-{2-[5-carbamoyl-2-(1-ethyl-3-methyl-5-pyrazolylcarbonylamino)-1H-1,3-benzimidazol-1-yl]ethyl}propoxy}methyl)carbonylamino]-3,6,9-trioxaundecanamide]	2.2	–	–	–
CCn1nc(C)cc1C(=O)N=c1n(C)c2cc(C(N)=O)ccc2n1CCC(CCn1c(=NC(=O)c2cc(C)nn2CC)n(C)c2cc(C(N)=O)ccc21)OCC(=O)NCCOCCOCCOCCOCCOCC(=O)N[C@H]1C[C@@H](C(=O)N[C@@H]2CCCc3ccccc32)N(C(=O)[C@@H](NC(=O)[C@H](C)NC)C2CCCCC2)C1 (some centres unmarked) [Example 13]	4.1	–	–	–
CCn1nc(C)cc1C(=O)N=c1n(C)c2cc(C(N)=O)ccc2n1CCC(CCn1c(=NC(=O)c2cc(C)nn2CC)n(C)c2cc(C(N)=O)ccc21)OCC(=O)NCCOCCOCCOCCOCCC(=O)NCCOCCOCCOCC(=O)N[C@H]1C[C@@H](C(=O)N[C@@H]2CCCc3ccccc32)N(C(=O)[C@@H](NC(=O)[C@H](C)NC)C2CCCCC2)C1 (some centres unmarked) [Example 18]	3.5	–	–	–
CCn1nc(C)cc1C(=O)N=c1n(C)c2cc(C(N)=O)ccc2n1CCC(CCn1c(=NC(=O)c2cc(C)nn2CC)n(C)c2cc(C(N)=O)ccc21)OCC(=O)NCCOCCOCCOCCOCCC(=O)NCCOCCNc1ccc(C(=O)NC2CCC(=O)NC2=O)c(OC)c1 (centres unmarked) [Example 34, N-(2-{2-[4-(N-2,6-Dioxo-3-piperidylcarbamoyl)-3-anisidino]ethoxy}ethyl)15-{[(3-{5-carbamoyl-2-[(1-ethyl-3-methyl-5-pyrazolyl)carbonylimino]-3-methyl-2,3-dihydro-1H-1 ,3-benzimidazol-1-yl}-1-(2-{5-carbamoyl-2-[(1-ethyl-3-methyl-5-pyrazolyl)carbonylimino]-3-methyl-2,3-dihydro-1H-1 ,3-benzimidazol-1-yl}ethyl)propoxy)methyl]carbonylamino}-4,7,10,13-tetraoxapentadecanamide]	3.7	–	–	–
CCn1nc(C)cc1C(=O)N=c1n(C)c2cc(C(N)=O)ccc2n1CCC(CCn1c(=NC(=O)c2cc(C)nn2CC)n(C)c2cc(C(N)=O)ccc21)OCC(=O)NCCOCCOCCOCCOCCC(=O)NCCC1CCN(c2ccc(C(=O)NC3CCC(=O)NC3=O)c(OC)c2)CC1 (centres unmarked) [Example 35, N-(2-{1-[4-(N-2,6-Dioxo-3-piperidylcarbamoyl)-3-methoxyphenyl]-4-piperidyl}ethyl)15-{[(3-{5-carbamoyl-2-[(1-ethyl-3-methyl-5-pyrazolyl)carbonylimino]-3-methyl-2,3-dihydro-1H-1 ,3-benzimidazol-1-yl}-1-(2-{5-carbamoyl-2-[(1-ethyl-3-methyl-5-pyrazolyl)carbonylimino]-3-methyl-2,3-dihydro-1H-1 ,3-benzimidazol-1-yl}ethyl)propoxy)methyl]carbonylamino}-4,7,10,13-tetraoxapentadecanamide]	10.3	–	–	–
CCn1nc(C)cc1C(=O)N=c1n(C)c2cc(C(N)=O)ccc2n1CCC(CCn1c(=NC(=O)c2cc(C)nn2CC)n(C)c2cc(C(N)=O)ccc21)OCC(=O)NCCOCCOCCOCCOCCC(=O)N1CCN(C2CCN(c3ccc(C(=O)NC4CCC(=O)NC4=O)c(OC)c3)CC2)CC1 (centres unmarked) [Example 36, N-[15-(4-{1-[4-(N-2,6-Dioxo-3-piperidylcarbamoyl)-3-methoxyphenyl]-4-piperidyl}-1-piperazinyl)-15-oxo-3,6,9,12-tetraoxapentadecyl](3-{5-carbamoyl-2-[(1-ethyl-3-methyl-5-pyrazolyl)carbonylimino]-3-methyl-2,3-dihydro-1H-1 ,3-benzimidazol-1-yl}-1-(2-{5-carbamoyl-2-[(1-ethyl-3-methyl-5-pyrazolyl)carbonylimino]-3-methyl-2,3-dihydro-1 H-1 ,3-benzimidazol-1-yl}ethyl)propoxy)acetamide]	10	–	–	–
CCn1nc(C)cc1C(=O)N=c1n(C)c2cc(C(N)=O)ccc2n1CCC(CCn1c(=NC(=O)c2cc(C)nn2CC)n(C)c2cc(C(N)=O)ccc21)OCC(=O)NCCOCCOCCOCCOCCC(=O)NCCC1CCN(c2ccc(C(=O)NC3CCC(=O)NC3=O)c(F)c2)CC1 (centres unmarked) [Example 38, N-(2-{1-[4-(N-2,6-Dioxo-3-piperidylcarbamoyl)-3-fluorophenyl]-4-piperidyl}ethyl)15-{[(3-{5-carbamoyl-2-[(1-ethyl-3-methyl-5-pyrazolyl)carbonylimino]-3-methyl-2,3-dihydro-1 H-1 ,3-benzimidazol-1-yl}-1-(2-{5-carbamoyl-2-[(1-ethyl-3-methyl-5-pyrazolyl)carbonylimino]-3-methyl-2,3-dihydro-1 H-1 ,3-benzimidazol-1-yl}ethyl)propoxy)methyl]carbonylamino}-4,7,10,13-tetraoxapentadecanamide]	2.6	–	–	–
CCn1nc(C)cc1C(=O)N=c1n(C)c2cc(C(N)=O)ccc2n1CCC(CCn1c(=NC(=O)c2cc(C)nn2CC)n(C)c2cc(C(N)=O)ccc21)OCC(=O)N1CCC[C@H]1c1ccccc1 (stereo partly drawn) [Example A25, 1-(3-{2-[(S)-2-Phenyl-1-pyrrolidinyl]-2-oxoethoxy}-5-{5-carbamoyl-2-[(1-ethyl-3-methyl-5-pyrazolyl)carbonylimino]-3-methyl-2,3-dihydro-1H-1,3-benzimidazol-1-yl}pentyl)-2-[(1-ethyl-3-methyl-5-pyrazolyl)carbonylimino]-3-methyl-2,3-dihydro-1H-1,3-benzimidazole-5-carboxamide]	–	lower compared to cells treated with diABZI c3 alone	lower compared to cells treated with cGAMP alone (with the exception of TBK1 in lane A25)	no phosphorylation of STING, IRF1 or TBK1 was observed
CCn1nc(C)cc1C(=O)N=c1n(C)c2cc(C(N)=O)ccc2n1CCC(CCn1c(=NC(=O)c2cc(C)nn2CC)n(C)c2cc(C(N)=O)ccc21)OCC(=O)N1CCC[C@H]1C(=O)N1CCc2cc(OC)ccc2C1 (stereo partly drawn) [Example A26, 1-[3-(2-{(S)-2-[(6-Methoxy-1,2,3,4-tetrahydro-2-isoquinolyl)carbonyl]-1-pyrrolidinyl}-2-oxoethoxy)-5-{5-carbamoyl-2-[(1-ethyl-3-methyl-5-pyrazolyl)carbonylimino]-3-methyl-2,3-dihydro-1H-1,3-benzimidazol-1-yl}pentyl]-2-[(1-ethyl-3-methyl-5-pyrazolyl)carbonylimino]-3-methyl-2,3-dihydro-1H-1,3-benzimidazole-5-carboxamide]	–	lower compared to cells treated with diABZI c3 alone	lower compared to cells treated with cGAMP alone	no phosphorylation of STING, IRF1 or TBK1 was observed
N-(2-{1-[4-(N-2,6-Dioxo-3-piperidylcarbamoyl)-3-chlorophenyl]-4-piperidyl}ethyl)15-{[(3-{5-carbamoyl-2-[(1-ethyl-3-methyl-5-pyrazolyl)carbonylimino]-3-methyl-2,3-dihydro-1H-1 ,3-benzimidazol-1-yl}-1-(2-{5-carbamoyl-2-[(1-ethyl-3-methyl-5-pyrazolyl)carbonylimino]-3-methyl-2,3-dihydro-1H-1 ,3-benzimidazol-1-yl}ethyl)propoxy)methyl]carbonylamino}-4,7,10,13-tetraoxapentadecanamide [Example 37]	3.7	–	–	–
